Assays:
Test in all cases: Test C greenhouse herbicide test, pre- and postemergence
Type in all cases: in vivo
[1] = system: barnyardgrass (Echinochloa crus-galli)
Source text: (§1) Seeds of plant species selected from blackgrass (Alopecurus myosuroides), ryegrass, Italian (Italian ryegrass, Lolium multiflorum), wheat (winter wheat, Triticum aestivum), galium (catchweed bedstraw, Galium aparine), corn (Zea mays), large crabgrass, large (large crabgrass, Digitaria sanguinalis), foxtail, giant (giant foxtail, Setaria faberii), johnsongrass (Sorghum halepense), lambsquarters (Chenopodium album), morningglory (Ipomoea coccinea), nutsedge, yellow (yellow nutsedge, Cyperus esculentus), pigweed (Amaranthus retroflexus), ragweed (common ragweed, Ambrosia elatior), soybean (Glycine max), barnyardgrass (Echinochloa crus-galli), oilseed rape (Brassica napus), waterhemp (common waterhemp, Amaranthus rudis), and velvetleaf (Abutilon theophrasti) were planted into a blend of loam soil and sand and treated preemergence with test chemicals formulated in a non-phytotoxic solvent mixture which included a surfactant.
(§2) At the same time, plants selected from these crop and weed species and also chickweed (common chickweed, Stellaria media), kochia (Kochia scoparia), and oat, wild (wild oat, Avena fatua), were planted in pots containing Redi-Earth® planting medium (Scotts Company, 14111 Scottslawn Road, Marysville, Ohio 43041) comprising spaghnum peat moss, vermiculite, wetting agent and starter nutrients and treated with postemergence applications of test chemicals formulated in the same manner. Plants ranged in height from 2 to 18 cm (1- to 4-leaf stage) for postemergence treatments. Treated plants and controls were maintained in a greenhouse for 13 to 15 d, after which time all species were compared to controls and visually evaluated. Plant response ratings, summarized in Table C, are based on a scale of 0 to 100 where 0 is no effect and 100 is complete control. A dash (-) response means no test result.

[2] = system: blackgrass (Alopecurus myosuroides)
Source text: as §1, §2

[3] = system: corn (Zea mays)
Source text: as §1, §2

[4] = system: foxtail, giant (giant foxtail, Setaria faberii)
Source text: as §1, §2

[5] = system: galium (catchweed bedstraw, Galium aparine)
Source text: as §1, §2

[6] = system: johnsongrass (Sorghum halepense)
Source text: as §1, §2

[7] = system: lambsquarters (Chenopodium album)
Source text: as §1, §2

[8] = system: morningglory (Ipomoea coccinea)
Source text: as §1, §2

[9] = system: nutsedge, yellow (yellow nutsedge, Cyperus esculentus)
Source text: as §1, §2

[10] = system: pigweed (Amaranthus retroflexus)
Source text: as §1, §2

[11] = system: ragweed (common ragweed, Ambrosia elatior)
Source text: as §1, §2

[12] = system: ryegrass, Italian (Italian ryegrass, Lolium multiflorum)
Source text: as §1, §2

[13] = system: soybean (Glycine max)
Source text: as §1, §2

[14] = system: velvetleaf (Abutilon theophrasti)
Source text: as §1, §2

[15] = system: waterhemp (common waterhemp, Amaranthus rudis)
Source text: as §1, §2

[16] = system: wheat (winter wheat, Triticum aestivum)
Source text: as §1, §2

[17] = Postemergence, 31 g ai/ha, 0 to 100 scale (0 no effect, 100 complete control)
[18] = Postemergence, 125 g ai/ha, scale 0 to 100, 0 is no effect, 100 is complete control
[19] = Postemergence, 250 g ai/ha, scale 0 to 100, 0 no effect, 100 complete control, 13 to 15 d
[20] = Preemergence, 31 g ai/ha, scale 0 to 100, 0 is no effect, 100 is complete control
[21] = Preemergence, 62 g ai/ha, scale 0 to 100, 0 is no effect, 100 is complete control
[22] = Preemergence, 125 g ai/ha, scale 0 to 100, 0 is no effect, 100 is complete control
[23] = Preemergence, 250 g ai/ha, scale 0 to 100 (0 no effect, 100 complete control)
[24] = postemergence, 62 g ai/ha, scale 0 to 100, 0 no effect, 100 complete control

COc1nn(C)c(=O)c(-c2c(C)ccc3ccccc23)c1OC(=O)OC(C)C [Compound 36]
60: Plant response rating, Ryegrass, Italian [12, 18] | Ryegrass, Italian plant response rating [12, 24]
5: Blackgrass plant response rating [2, 17] | Plant response rating, Blackgrass [2, 18] | Blackgrass plant response rating [2, 24] | Plant response rating, Corn [3, 18] | Plant response rating, Corn [3, 19] | Plant response rating, Johnsongrass [6, 18] | Plant response rating, Johnsongrass [6, 19] | Plant response rating, Johnsongrass [6, 21] | Plant response rating, Johnsongrass [6, 22] | Johnsongrass plant response rating [6, 23] | Johnsongrass plant response rating [6, 24] | Plant response rating, Soybean [13, 18] | Plant response rating, Wheat [16, 19]
80: Plant response rating, Foxtail, Giant [4, 19] | Plant response rating, Lambsquarters [7, 21] | Lambsquarters plant response rating [7, 23] | Plant response rating, Morningglory [8, 20] | Plant response rating, Morningglory [8, 21] | Plant response rating, Ryegrass, Italian [12, 19] | Plant response rating, Velvetleaf [14, 21]
90: Galium plant response rating [5, 17] | Lambsquarters plant response rating [7, 17] | Morningglory plant response rating [8, 17] | Plant response rating, Morningglory [8, 22] | Plant response rating, Pigweed [10, 20] | Ragweed plant response rating [11, 17] | Plant response rating, Ragweed [11, 21] | Ragweed plant response rating [11, 24] | Velvetleaf plant response rating [14, 23]
55: Foxtail, Giant plant response rating [4, 24] | Plant response rating, Nutsedge, Yellow [9, 18] | Ryegrass, Italian plant response rating [12, 17] | Plant response rating, Velvetleaf [14, 20]
0: Plant response rating, Blackgrass [2, 20] | Corn plant response rating [3, 17] | Plant response rating, Corn [3, 20] | Plant response rating, Corn [3, 21] | Plant response rating, Corn [3, 22] | Corn plant response rating [3, 23] | Corn plant response rating [3, 24] | Johnsongrass plant response rating [6, 17] | Plant response rating, Johnsongrass [6, 20] | Soybean plant response rating [13, 17] | Plant response rating, Soybean [13, 21] | Soybean plant response rating [13, 24] | Wheat plant response rating [16, 17] | Plant response rating, Wheat [16, 18] | Plant response rating, Wheat [16, 20] | Plant response rating, Wheat [16, 21] | Plant response rating, Wheat [16, 22] | Wheat plant response rating [16, 23] | Wheat plant response rating [16, 24]
40: Plant response rating, Barnyardgrass [1, 19] | Nutsedge, Yellow plant response rating [9, 24]
20: Plant response rating, Blackgrass [2, 19] | Plant response rating, Blackgrass [2, 22] | Nutsedge, Yellow plant response rating [9, 17] | Plant response rating, Nutsedge, Yellow [9, 21] | Plant response rating, Nutsedge, Yellow [9, 22] | Soybean plant response rating [13, 23]
75: Plant response rating, Foxtail, Giant [4, 20] | Plant response rating, Foxtail, Giant [4, 21]
35: Plant response rating, Barnyardgrass [1, 18] | Plant response rating, Ryegrass, Italian [12, 22]
70: Barnyardgrass plant response rating [1, 23] | Plant response rating, Foxtail, Giant [4, 18] | Plant response rating, Lambsquarters [7, 20] | Pigweed plant response rating [10, 17]
95: Plant response rating, Galium [5, 18] | Plant response rating, Galium [5, 19] | Galium plant response rating [5, 24] | Morningglory plant response rating [8, 23] | Plant response rating, Pigweed [10, 18] | Plant response rating, Ragweed [11, 18] | Plant response rating, Ragweed [11, 19] | Plant response rating, Ragweed [11, 22] | Ragweed plant response rating [11, 23] | Plant response rating, Velvetleaf [14, 18] | Plant response rating, Velvetleaf [14, 19] | Plant response rating, Waterhemp [15, 18] | Waterhemp plant response rating [15, 24]
15: Barnyardgrass plant response rating [1, 17] | Plant response rating, Soybean [13, 19]
85: Plant response rating, Foxtail, Giant [4, 22] | Foxtail, Giant plant response rating [4, 23] | Plant response rating, Lambsquarters [7, 22] | Pigweed plant response rating [10, 24] | Plant response rating, Ragweed [11, 20] | Ryegrass, Italian plant response rating [12, 23] | Plant response rating, Velvetleaf [14, 22] | Velvetleaf plant response rating [14, 24] | Waterhemp plant response rating [15, 17]
30: Plant response rating, Blackgrass [2, 21] | Blackgrass plant response rating [2, 23] | Foxtail, Giant plant response rating [4, 17] | Plant response rating, Ryegrass, Italian [12, 20] | Plant response rating, Ryegrass, Italian [12, 21] | Plant response rating, Soybean [13, 22]
10: Plant response rating, Barnyardgrass [1, 20] | Plant response rating, Nutsedge, Yellow [9, 20]
25: Plant response rating, Barnyardgrass [1, 21] | Barnyardgrass plant response rating [1, 24]
65: Plant response rating, Barnyardgrass [1, 22] | Plant response rating, Nutsedge, Yellow [9, 19] | Nutsedge, Yellow plant response rating [9, 23] | Velvetleaf plant response rating [14, 17]
98: Plant response rating, Lambsquarters [7, 18] | Lambsquarters plant response rating [7, 24] | Plant response rating, Morningglory [8, 18] | Morningglory plant response rating [8, 24] | Plant response rating, Waterhemp [15, 19]
100: Plant response rating, Galium [5, 20] | Plant response rating, Galium [5, 21] | Plant response rating, Galium [5, 22] | Galium plant response rating [5, 23] | Plant response rating, Lambsquarters [7, 19] | Plant response rating, Morningglory [8, 19] | Plant response rating, Pigweed [10, 19] | Plant response rating, Pigweed [10, 21] | Plant response rating, Pigweed [10, 22] | Pigweed plant response rating [10, 23] | Plant response rating, Soybean [13, 20] | Plant response rating, Waterhemp [15, 20] | Plant response rating, Waterhemp [15, 21] | Plant response rating, Waterhemp [15, 22] | Waterhemp plant response rating [15, 23]
